Results taken from PMC12010006, “Subnanomolar MAS-related G protein-coupled receptor-X2/B2 antagonists with efficacy in human mast cells and disease models” (Signal Transduction and Targeted Therapy, 2025).

Key:
Type in all cases: cell-based
MRGPRX2 [1] = target: T1, MRGPRX2 (Homo sapiens, UniProt Q96LB1); test: Ca2+ mobilization assay, LN229 cells overexpressing MRGPRX2; parameters: expressed in transfected cells; host or cells: LN229 human glioblastoma cells; plasmid pLXSN-MRGPRX2 (Addgene #213960); details: for Ki: versus CST-14 (EC80 800 nM, EC50 452 nM), Cheng-Prusoff, read-out: Ca2+ assay Ki ± SEM
T1 sequence (Q96LB1 1-330): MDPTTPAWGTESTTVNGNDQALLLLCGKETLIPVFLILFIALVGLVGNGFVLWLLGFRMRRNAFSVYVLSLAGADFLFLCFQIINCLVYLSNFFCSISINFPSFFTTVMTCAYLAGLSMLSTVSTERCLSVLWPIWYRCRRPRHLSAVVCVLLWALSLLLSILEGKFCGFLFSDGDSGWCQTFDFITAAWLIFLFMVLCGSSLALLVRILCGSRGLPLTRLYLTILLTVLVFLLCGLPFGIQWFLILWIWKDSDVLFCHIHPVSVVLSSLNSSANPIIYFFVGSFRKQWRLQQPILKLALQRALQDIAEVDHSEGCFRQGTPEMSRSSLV

MRGPRX2 [2] = target: T1, MRGPRX2; test: β-arrestin assay (agonist mode), β-arrestin CHO cells recombinantly expressing MRGPRX2; details: for EC50: agonist test, read-out: β-Arrestin assay EC50 ± SEM; for β-Arrestin assay % activation: normalized to CST-14 (EC80 5,000 nM)
Excerpt: Eurofins DiscoverX (Fremont, CA, USA) provided engineered Chinese hamster ovary (CHO) cells stably expressing β-arrestin-2 fused to a large β-galactosidase fragment (enzyme acceptor, EA). These CHO-K1-β-arrestin-2 cells were commercially available (93-0164). CHO-K1-β-arrestin-2 cells that additionally expressed MRGPRX1, -2, or -4 fused to the fragment ProLink™ (PK) were also purchased from the same company (93-0919C2, 93-0309C2, and 3-0541C2A, respectively). CHO cells expressing MRGPRX3 were generated as previously […].[31] The cells were grown in F-12 Ham Nutrient Mixture (Life Technologies) supplemented with 10% FBS, 100 U/mL of penicillin, 100 µg/mL of streptomycin (PAN-Biotech), 300 μg/mL of hygromycin B (PAN-Biotech), and 800 μg/mL of gentamicin (PAN-Biotech) at 37 °C and 5% CO2.).
The assays were carried out as previously described.[22] […] After 30 min of incubation at 37 °C and 5% CO2, Cortistatin-14 (CST-14, Bioscience, Bristol, United Kingdom) or another MRGPRX2 agonist that served as a standard agonist was added, and the mixture was incubated for 90 min at 37 °C and 5% CO2. Next, a detection reagent (50 µL, DiscoverX) was added, and the mixture was incubated at room temperature in the dark for 60 min. Chemiluminescence was measured on a Mithras LB 940 plate reader (Berthold Technologies, Bad Wildbad, Germany). The results represent means ± SEM of three to five independent experiments, each in duplicates.
^d β-Arrestin CHO cells recombinantly expressing MRGPRX2
^f Percentage of activation of normalized to CST-14 (EC80 5,000 nM)

[3] = MTT cytotoxicity assay, 1321N1 astrocytoma cells; details: human
Experimental: Potential cytotoxicity of 24 and its similarly potent analogs 27 and 30 was assessed in 3-(4,5-dimethylthiazol-2-yl)-2,5-diphenyl-2H-tetrazolium bromide (MTT) assays performed on human 1321N1 astrocytoma cells (Supplementary Table S3). This cell line was chosen since it is well-established for the screening of cytotoxic drugs, making it a reliable choice for assessing cytotoxicity.[46]
For the experiment, 1321N1 astrocytoma cells were seeded at a density of 1 × 10^5 cells/well in 180 µL of cell medium into transparent 96-well plates, whereby the outer wells only contained buffer (to avoid an edge effect). Cells were incubated for 24 h at 37°C, 5% CO2. Compound dilutions were prepared in DMSO. […] Subsequently, 20 µL of these compound dilutions were added to each well so that astrocytoma cells were incubated with varying concentrations of MRGPRX2 antagonists (0.01 µM–10 µM) at 37° C, 5% CO2. 5-Fluoruracil, a cytostatic drug, served as a positive control. Medium-containing DMSO in the absence of a compound served as a negative control. After 71 h, […] of MTT solution (5 mg/mL, prepared in Millipore water) was added to each well (final concentration 0.5 mg/mL) and cells were incubated again for another hour. Subsequently, the medium was removed, and cells were lyzed by adding 100 µL of DMSO per well. In order to dissolve the produced formazan dye crystals, plates were incubated for 2 min on a rotary shaker (150 rpm). Afterward, the UV absorbance at 570 nm was measured by using SoftMax® Pro5.1 Microplate Data Acquisition & Analysis Software (Molecular Devices, Sunnyvale, CA, USA). The UV absorbance at 690 nm was measured directly afterward to eliminate the background absorbance of residual medium and cell components. The values of the measured UV absorbance at 690 nm were subtracted from the values obtained by the measurement of UV absorbance at 570 nm. Three to four independent experiments were performed, each in triplicate.

SMILES | agonistic activity in Ca2+ assays (MRGPRX2 [1]) | Ki (MRGPRX2 [1]) [nM] | EC50 (MRGPRX2 [2]) [nM] | β-Arrestin assay % activation (MRGPRX2 [2]) [%] | CC50 at 72 h [3] [nM] | cytotoxicity at 72 h, 10000 nM ([3]; up to 10,000 nM, read-out: Cytotoxicity % effect) [%] | fold higher potency compared to the 8-monofluorinated derivative (30) (MRGPRX2 [1]) | fold increase in potency compared to 10 (MRGPRX2 [1]) [fold] | fold increase in potency compared to hit compound 1 (MRGPRX2 [1]) [fold] | MRGPRX2 antagonistic potency in Ca2+ assay, in words (MRGPRX2 [1]; versus CST-14)
CCCc1c(C)[nH]c2nc3ccccc3n2c1=O [Compound 1, 2-methyl-3-propylbenzo[4,5]imidazo[1,2-a]pyrimidin-4(1H)-one] | did not show any agonistic activity | 246 ± 125 | > 10000 | 1 |  |  |  |  |  | 
CCc1c(C(C)C)[nH]c2nc3cc(F)c(F)cc3n2c1=O [Compound 24, 3-ethyl-7,8-difluoro-2-isopropylbenzo[4,5]imidazo [1,2-a] pyrimidin-4(1H)-one] |  | 0.142 | > 10000 | -1 | > 10000 | 41 | about 4 fold | 7 | 1870 | subnanomolar potencies
